{"source": "patent US11485657B2", "about": "“Biological remediation of groundwater using an algal photobioreactor system” (priority 2019, dated 2022)", "system": "C. subellipsoidea", "test": "Paraoxon hydrolysis in C. subellipsoidea cultures assayed by p-nitrophenol production (absorbance 408 nm)", "assay_type": "cell-based, Coccomyxa subellipsoidea", "details": "for hydrolysis of paraoxon into p-nitrophenol with oligomycin and rotenone in the dark: oligomycin 20 μg/mL and rotenone 20 μg/mL together, samples at 12 h, 24 h, 48 h", "data": [{"smiles": "CN(C)C(=O)Nc1ccc(Cl)c(Cl)c1", "note": "[DCMU, 3-(3,4-dichlorophenyl)-1,1-dimethylurea]", "values": [{"measurement": "effect on paraoxon hydrolysis, DCMU and paraoxon in the light", "setting": "actively growing cultures, light", "value": "blocked hydrolysis"}, {"measurement": "production of p-nitrophenol from paraoxon in the presence of DCMU", "setting": "paraoxon 0.25 mg/mL, 12 h, light, versus absence of DCMU", "value": "decreased nearly two-fold"}]}, {"smiles": "C=C(C)[C@H]1Cc2c(ccc3c2O[C@@H]2COc4cc(OC)c(OC)cc4[C@@H]2C3=O)O1", "note": "[rotenone]", "values": [{"measurement": "hydrolysis of paraoxon into p-nitrophenol with oligomycin and rotenone in the dark", "setting": "paraoxon 0.25 mg/mL", "value": "not hydrolyzed"}]}, {"smiles": "CC[C@H]1/C=C/C=C/C[C@@H](C)[C@H](O)[C@@](C)(O)C(=O)[C@@H](C)[C@H](O)[C@@H](C)C(=O)[C@@H](C)[C@H](O)[C@@H](C)/C=C/C(=O)O[C@@H]2[C@H](C)[C@H](CC1)O[C@]1(CC[C@H](C)[C@H](C[C@@H](C)O)O1)[C@H]2C", "note": "[oligomycin]", "values": [{"measurement": "hydrolysis of paraoxon into p-nitrophenol with oligomycin and rotenone in the dark", "setting": "paraoxon 0.25 mg/mL", "value": "not hydrolyzed"}]}]}
